# Assay results from patent publication US7371766B2, “Curcumin analogs with anti-tumor and anti-angiogenic properties” (Emory University, priority 1999, dated 2008).
# Experiments:
# [1] = test system: SF-295; settings: 48 hours
# [2] = test system: SNB-19; settings: 48 hours
# [3] = test system: SK-MEL-2; settings: 48 hours
# [4] = test system: OVCAR-8; settings: 48 hours
# [5] = test system: COLO 205; settings: 48 hours
# [6] = test system: NCI-H226; settings: 48 hours
# [7] = test system: HOP-62; settings: 48 hours
# [8] = test system: NCI-H23; settings: 48 hours
# [9] = test system: HL-60 (TB)
# [10] = test system: TK-10; settings: 48 hours
# [11] = test system: SK-OV-3; settings: 48 hours
# [12] = test system: UACC-62; settings: 48 hours
# [13] = test system: CCRF-CEM
# [14] = test system: UACC-257; settings: 48 hours
# [15] = test system: HCC-2998; settings: 48 hours
# [16] = test system: SK-MEL-28; settings: 48 hours
# [17] = test system: 786-0; settings: 48 hours
# [18] = test system: NCI/ADR-RES
# [19] = test system: OVCAR-4; settings: 48 hours
# [20] = test system: RPMI-8226; settings: 48 hours
# [21] = test system: PC-3; settings: 48 hours
# [22] = test system: LOX IMVI
# [23] = test system: SK-MEL-5; settings: 48 hours
# [24] = test system: RXF 393; settings: 48 hours
# [25] = test system: MDA-MB-435; settings: 48 hours
# [26] = test system: SF-539; settings: 48 hours
# [27] = test system: EKVX
# [28] = test system: K-562; settings: 48 hours
# [29] = test system: SF-268; settings: 48 hours
# [30] = test system: HOP-92; settings: 48 hours
# [31] = test system: KM12; settings: 48 hours
# [32] = test system: MDA-N
# [33] = read-out: Median Growth Inhibitory Concentration (GI50), Leukemia, 48 hours
# [34] = read-out: Median Lethal Concentration (LC50), Leukemia, 48 hours, SRB assay
# [35] = read-out: Median Growth Inhibitory Concentration (GI50), Breast Cancer, 48 hours
# [36] = read-out: Median Lethal Concentration (LC50), Breast Cancer, 48 hours, SRB assay
compound,measurement,setting,value
"O=C1C(=Cc2ccccc2O)COCC1=Cc1ccccc1O [EF25, 3,5-Bis(2-hyrdoxybenzylidene)tetrahydro4-H-pyran4-one]",GI50,"[1]; read-out: Median Growth Inhibitory Concentration (GI50), SF-295, CNS Cancer",1700 nM
same,CC50,"[1]; read-out: Median Lethal Concentration (LC50), CNS Cancer, SF-295, SRB assay",35000 nM
same,GI50,"[2]; read-out: Median Growth Inhibitory Concentration (GI50), SNB-19, CNS Cancer",2200 nM
same,CC50,"[2]; read-out: Median Lethal Concentration (LC50), CNS Cancer, SNB-19, SRB assay",37300 nM
same,GI50,"[3]; read-out: Median Growth Inhibitory Concentration (GI50), SK-MEL-2, Melanoma",2000 nM
same,CC50,"[3]; read-out: Median Lethal Concentration (LC50), Melanoma, SK-MEL-2, SRB assay",12600 nM
same,GI50,"[4]; read-out: Median Growth Inhibitory Concentration (GI50), OVCAR-8, Ovarian Cancer",800 nM
same,CC50,"[4]; read-out: Median Lethal Concentration (LC50), Ovarian Cancer, OVCAR-8, SRB assay",23000 nM
same,GI50,"[5]; read-out: Median Growth Inhibitory Concentration (GI50), COLO 205, Colon Cancer",2000 nM
same,CC50,"[5]; read-out: Median Lethal Concentration (LC50), Colon Cancer, COLO 205, SRB assay",33400 nM
same,GI50,"[6]; read-out: Median Growth Inhibitory Concentration (GI50), NCI-H226, Non-Small Cell Lung Cancer",2200 nM
same,CC50,"[6]; read-out: Median Lethal Concentration (LC50), Non-Small Cell Lung Cancer, NCI-H226, SRB assay",58000 nM
same,GI50,"[7]; read-out: Median Growth Inhibitory Concentration (GI50), HOP-62, Non-Small Cell Lung Cancer",1500 nM
same,CC50,"[7]; read-out: Median Lethal Concentration (LC50), Non-Small Cell Lung Cancer, HOP-62, SRB assay",37200 nM
same,GI50,"[8]; read-out: Median Growth Inhibitory Concentration (GI50), NCI-H23, Non-Small Cell Lung Cancer",1700 nM
same,CC50,"[8]; read-out: Median Lethal Concentration (LC50), Non-Small Cell Lung Cancer, NCI-H23, SRB assay",12900 nM
same,GI50,[9]; [33],1100 nM
same,CC50,[9]; [34],> 100000 nM
same,GI50,"[10]; read-out: Median Growth Inhibitory Concentration (GI50), TK-10, Renal Cancer",2200 nM
same,CC50,"[10]; read-out: Median Lethal Concentration (LC50), Renal Cancer, TK-10, SRB assay",24600 nM
same,GI50,"[11]; read-out: Median Growth Inhibitory Concentration (GI50), SK-OV-3, Ovarian Cancer",2400 nM
same,CC50,"[11]; read-out: Median Lethal Concentration (LC50), Ovarian Cancer, SK-OV-3, SRB assay",26900 nM
same,GI50,"[12]; read-out: Median Growth Inhibitory Concentration (GI50), UACC-62, Melanoma",1700 nM
same,CC50,"[12]; read-out: Median Lethal Concentration (LC50), Melanoma, UACC-62, SRB assay",14400 nM
same,GI50,[13]; [33],300 nM
same,CC50,[13]; [34],> 100000 nM
same,GI50,"[14]; read-out: Median Growth Inhibitory Concentration (GI50), UACC-257, Melanoma",1600 nM
same,CC50,"[14]; read-out: Median Lethal Concentration (LC50), Melanoma, UACC-257, SRB assay",8200 nM
same,GI50,"[15]; read-out: Median Growth Inhibitory Concentration (GI50), HCC-2998, Colon Cancer",1500 nM
same,CC50,"[15]; read-out: Median Lethal Concentration (LC50), Colon Cancer, HCT-2998, SRB assay",5300 nM
same,GI50,"[16]; read-out: Median Growth Inhibitory Concentration (GI50), SK-MEL-28, Melanoma",2400 nM
same,CC50,"[16]; read-out: Median Lethal Concentration (LC50), Melanoma, SK-MEL-28, SRB assay",6600 nM
same,GI50,"[17]; read-out: Median Growth Inhibitory Concentration (GI50), 786-0, Renal Cancer",400 nM
same,CC50,"[17]; read-out: Median Lethal Concentration (LC50), Renal Cancer, 786-O, SRB assay",32600 nM
same,GI50,[18]; [35],1600 nM
same,CC50,[18]; [36],71000 nM
same,GI50,"[19]; read-out: Median Growth Inhibitory Concentration (GI50), OVCAR-4, Ovarian Cancer",2000 nM
same,CC50,"[19]; read-out: Median Lethal Concentration (LC50), Ovarian Cancer, OVCAR-4, SRB assay",23300 nM
same,GI50,"[20]; read-out: Median Growth Inhibitory Concentration (GI50), RPMI-8226, Leukemia",200 nM
same,CC50,"[20]; read-out: Median Lethal Concentration (LC50), Leukemia, RPMI-8226, SRB assay",70900 nM
same,GI50,"[21]; read-out: Median Growth Inhibitory Concentration (GI50), PC-3, Prostate Cancer",500 nM
same,CC50,"[21]; read-out: Median Lethal Concentration (LC50), Prostate Cancer, PC-3, SRB assay",24800 nM
same,GI50,"[22]; read-out: Median Growth Inhibitory Concentration (GI50), Melanoma, 48 hours",200 nM
same,CC50,"[22]; read-out: Median Lethal Concentration (LC50), Melanoma, 48 hours, SRB assay",3600 nM
same,GI50,"[23]; read-out: Median Growth Inhibitory Concentration (GI50), SK-MEL-5, Melanoma",1500 nM
same,CC50,"[23]; read-out: Median Lethal Concentration (LC50), Melanoma, SK-MEL-5, SRB assay",6600 nM
same,GI50,"[24]; read-out: Median Growth Inhibitory Concentration (GI50), RXF 393, Renal Cancer",600 nM
same,CC50,"[24]; read-out: Median Lethal Concentration (LC50), Renal Cancer, RXF 393, SRB assay",4600 nM
same,GI50,"[25]; read-out: Median Growth Inhibitory Concentration (GI50), MDA-MB-435, Breast Cancer",1000 nM
same,CC50,"[25]; read-out: Median Lethal Concentration (LC50), Breast Cancer, MDA-MB-435, SRB assay",16300 nM
same,GI50,"[26]; read-out: Median Growth Inhibitory Concentration (GI50), SF-539, CNS Cancer",500 nM
same,CC50,"[26]; read-out: Median Lethal Concentration (LC50), CNS Cancer, SF-539, SRB assay",16800 nM
same,GI50,"[27]; read-out: Median Growth Inhibitory Concentration (GI50), Non-Small Cell Lung Cancer, 48 hours",1400 nM
same,CC50,"[27]; read-out: Median Lethal Concentration (LC50), Non-Small Cell Lung Cancer, 48 hours, SRB assay",24200 nM
same,GI50,"[28]; read-out: Median Growth Inhibitory Concentration (GI50), K-562, Leukemia",600 nM
same,CC50,"[28]; read-out: Median Lethal Concentration (LC50), Leukemia, K-562, SRB assay",91800 nM
same,GI50,"[29]; read-out: Median Growth Inhibitory Concentration (GI50), SF-268, CNS Cancer",1400 nM
same,CC50,"[29]; read-out: Median Lethal Concentration (LC50), CNS Cancer, SF-268, SRB assay",43300 nM
same,GI50,"[30]; read-out: Median Growth Inhibitory Concentration (GI50), HOP-92, Non-Small Cell Lung Cancer",2400 nM
same,CC50,"[30]; read-out: Median Lethal Concentration (LC50), Non-Small Cell Lung Cancer, HOP-92, SRB assay",35400 nM
same,GI50,"[31]; read-out: Median Growth Inhibitory Concentration (GI50), KM12, Colon Cancer",300 nM
same,CC50,"[31]; read-out: Median Lethal Concentration (LC50), Colon Cancer, KM12, SRB assay",10700 nM
same,GI50,[32]; [35],1000 nM
same,CC50,[32]; [36],20000 nM
